This is an account of results in patent US20250367191A1, “TREATMENT OF MITOCHONDRIAL DISEASES WITH A CNS-PENETRANT SGC STIMULATOR ZAGOCIGUAT” (Tisento Therapeutics Inc., priority 2022, published 2025).

Data set [1] has as its system participants diagnosed with MELAS. The data set is described as follows: MELAS study: fMRI-BOLD during resting state and visual stimulus. The data set is classed as in vivo, human. The procedure: Two exploratory functional neuroimaging modalities, arterial spin labeling (ASL) and functional magnetic resonance imaging (fMRI), were used to measure the potential PD effects of Compound I in the brain. While ASL quantifies regional CBF during the resting state, fMRI is a relative measure based on the blood-oxygen-level-dependent (BOLD) effect and was conducted during both a resting state and during a visual stimulus to measure brain activity.
Each individual MRI scanning session took approximately 45 minutes (maximum of ˜1 hour).

The test system is the same in data set [2]. As to the kind of experiment: MELAS study: plasma biomarkers of mitochondrial dysfunction (lactate, GDF-15, FGF-21). The format is in vivo, human. The protocol:
Plasma and serum samples for biomarkers were collected from each participant. These biomarkers tested the target engagement of Compound I as well as the impact of the compound on disease. Plasma or serum samples were analyzed for concentrations of growth differentiation factor 15 (GDF-15), lactate, pyruvate, alanine, neurofilament light chain (NFL), vascular cell adhesion molecule 1, interleukin-1beta, asymmetric dimethylarginine (ADMA), L arginine, and other biomarkers relevant to the pathophysiology of mitochondrial disease, as well as their response to Compound I.
This change was observed across all brain regions of interest. Effect size throughout this disclosure is defined as the means change from baseline in a particular parameter that is being measured, divided by the standard deviation. Effect sizes closer to 1 or −1 (positive or negative dependent on the direction of movement for the specific parameter, i.e. +0.8 to +1.0 or −0.8 to −1.0) are usually considered large. Effect sizes between 0.5 and 0.8 or −0.5 and −0.8 (positive or negative dependent on the direction of movement for the specific parameter) are usually considered moderate. Effect sizes closer to below 0.5 or −0.5 (positive or negative dependent on the direction of movement for the specific parameter) are usually considered small.

The test system is the same in data set [3]. As to the kind of experiment: MELAS study: patient-reported outcomes (PGIC, MFIS, PROMIS). The format is in vivo, human. From the text: The Patient-reported Outcomes Measurement Information System (PROMIS) Item Bank v2.0—Cognitive Function is a self-administered questionnaire that assesses multiple aspects of mental fatigue and cognitive function in the past 7 days prior to the administration of the questionnaire. It uses a Likert-type rating scale (eg, “Never” to “Very often”).
The Patient Global Impression of Change (PGIC) is a single-item questionnaire that assesses the participant's perception of change in his/her overall health status since the start of the study using a Likert-type rating scale (eg, “Very much improved” to “Very much worse”).
The Modified Fatigue Impact Scale (MFIS) is a self-administered questionnaire that assesses the impact of fatigue in terms of physical, cognitive, and psychosocial functioning over the past 4 weeks. Patients respond using a Likert-type rating scale. (eg, “Never” to “Almost always”).

Another data set relates to healthy participants. As to the kind of experiment: Phase I trial NCT03856827, healthy participants aged 18 to 62: EEG. The data set is classed as in vivo, human. The protocol:
Electroencephalography (EEG) is a technique that measures electrical activity in the brain (brain electrophysiology) by using electrodes places on the scalp. EEG-power spectral signals may be analyzed at different frequencies or frequency bands. They were analyzed at the following frequency bands in two prior phase 1 clinical trials with Compound I described below: Delta-1-4 Hz (typically associated with sleep), Theta-4-7.5 Hz (associated with waking/falling asleep, some association with cognition), Alpha-8-12 Hz (associated with passive wakefulness, and with cognitive processing), Beta-12-25 Hz (associated with alertness and concentration) and Gamma-25-45 Hz (associated with higher cognitive function). qEEG stands for quantitative electroencephalography. […]
During EEG-ERP experiments, several key waveforms may be evaluated following a stimulus: N200 (associated with stimulus identification and distinction), P300 (associated with selective attention, information processing and cognitive speed/capacity), P200 (associated with aspects of selective attention or stimulus encoding), P50 (assciated with sensory gating, or the reduced neurophysiological response to redundant stimuli), and N100 (associated with early perceptal processes). […]

A short description of data set [4]: Clinical trial in patients with stable schizophrenia: PK and safety. The data set is classed as in vivo, human. The settings on record: total oral daily dosages up to 60 mg per day.
For data set [5], the system named is mitochondrial disease patient cells. The settings on record: cited from earlier work.
The next data set relates to rats. The settings on record: cited from earlier work.
Setting [6] is: plasma, trend towards reduction.

In the case of `Fc1ccccc1Cc1nc(-c2nc(C(F)(F)F)n[nH]2)cn2ccnc12` [Compound I, zagociguat], in data set [1] (Day 29 compared to screening and Day 1), the “task-based functional MRI (visual activation, flashing checkerboard)” value is “increased activation of voxels in the occipital region”. The “task-free functional MRI during resting state, connectivity” value in data set [1] (Day 29 compared to screening and day 1) was “enhanced connecitivity”. Besides, in data set [2] (in vivo), the “participants with reductions in GDF-15” value is on record as 4 of 8 and the “participants with reductions in lactate” value is listed as 6 of 8. The “reductions in GDF-15, greatest” value in data set [2] (participants with higher baseline concentrations) is given as “up to 39%”. In data set [2] (setting [6]), the “FGF-21, effect size” value is given as −0.2; the “GDF-15, effect size” value is reported as −0.5; the “Lactate concentrations, effect size” value is given as −0.5. For the same compound, in data set [3] (8 participants), the “participants reporting improvement in their disease (PGIC)” value is listed as “Three of the 8”, the “participants reporting no change in their disease (PGIC)” value is 4 and the “participants reporting their disease as much worse (PGIC)” value turned out to be 1. In data set [3] (Day 29), the “changes in MFIS and PROMIS at the study level” value is given as “not observed”. Further, the “ERP P300 amplitude” value in the data set with healthy participants (QD dosing, healthy participants aged 18 to 62) is “increase in amplitude with increasing dose level”. The alpha power result with healthy participants (day 14, all dosage levels tested, compared to placebo) was “Improvements in alpha power”. Further, in data set [4], the “PK, dose proportionality” value was “proportional PK”; the safety and tolerability entry was “safe and well tolerated”. In addition, the “abundance of available adenosine triphosphate (ATP)” value in data set [5] (mitochondrial disease patient cells) is “increasing the abundance of available adenosine triphosphate (ATP)”. Also, in data set [5] (patient cells), the “expression levels of DDAH2” value was “increased expression levels” and the “expression levels of TFAM” value was “increased expression levels”. For the same compound, in the data set with rats (chronic dosing), the “brain metabolite NAA+NAAG deficits” value is reported as “reversed”, the dendritic spine density entry is on record as “improved dendritic spine density” and the “hippocampal long term potentiation (LTP)” value was “restored”. The behavioral task performance result with rats (pharmacologically impaired rats) is “improved behavioral task performance”. For the same compound, in the data set with rats (rat, in vivo), the “neurotrophic factors pCREB and BDNF” value is reported as “increased neurotrophic factors”.
